In PMC11311842, “Radiosynthesis and Preclinical Evaluation of ^18F-Labeled Estradiol Derivatives with Different Lipophilicity for PET Imaging of Breast Cancer” (Cancers, 2024):

Tests used:
[1] = Plasma protein binding (MicroSpin G-50 columns); assay type: in vitro ADME; settings: human plasma, 10 min, 37 °C
Description: MicroSPin G-50 columns (Cytiva, Merck KGaA, Darmstadt, Germany) were preconditioned according to the manufacturer’s protocol and the experiment was performed as follows. In brief, an aliquot of the tracer (1 µL, approx. 250 kBq) was added to NaCl (0.9%, 200 µL, negative control) or human plasma (200 µL) and incubated for 10 min at 37 °C. A sample from the plasma or negative control (40 µL) was carefully added to the resin, and the column was placed in an Eppendorf tube. After centrifugation (2 min, 2000× g), the eluate and the resin were collected separately. Both were measured for radioactivity using a γ-counter (Wallac Wizard, PerkinElmer, Waltham, MA, USA), and the radioactivity eluted from the resin was calculated as a percentage of the total amount of radioactivity. The determination of plasma protein binding was performed twice in duplicate.

[2] = Stability in human serum and plasma in vitro (radio-HPLC); assay type: in vitro ADME; settings: 37 °C
Description: An aliquot of the formulated tracer solution (40 µL containing approx. 10 MBq in 0.9% NaCl) was incubated with 200 µL of human plasma (Hölzel Diagnostika Handels GmbH, from CosmoBio USA, Carlsbad, CA, USA) or human serum (Biochrom GmbH, Merck KGaA, Darmstadt, Germany), respectively, at 37 °C. After various time points (5–120 min), aliquots (30 µL) were taken and quenched in methanol or 10% TFA (30 µL). The samples were centrifuged for 3 min, and subsequently the supernatants were analyzed by radio-HPLC (Chromolith RP-18e, 100 × 4.6 mm, 10–100% acetonitrile (with 0.1% TFA) in water (with 0.1% TFA) over 5 min, 4 mL/min).

[3] = system: T47D (ER+) and MDA-MB-231 (ER-) tumor-bearing nude mice; assay: Biodistribution in tumor-bearing nude mice; assay type: in vivo
Description: Female NMRI nude mice (Crl:NMRI-Foxn1^nu) were purchased from Charles River (Charles River Laboratories Inc., Wilmington, MA, USA) at the age of four weeks and kept in groups of four to five animals in individually ventilated cages in a twelve hours dark/light cycle, with unlimited access to water and standard chow. At the age of nine to ten weeks, one 17β-estradiol pellet per animal (0.72 mg per pellet, 3 mm diameter) with a 60-day release time (Innovative Research of America, Sarasota, FL, USA) was subcutaneously implanted on the back under isoflurane anesthesia. After three days, approximately 2–3 × 10^6 MCF-7, T47D or MDA-MB-231 tumor cells (in 50 µL PBS) were mixed with Matrigel (50 µL, BD Biosciences, Becton, Dickinson and Company, Franklin Lakes, NJ, USA) and injected subcutaneously to the back of the mice. Tumor diameters and weight of the animals were recorded five times a week. Biodistribution or imaging studies were performed three–four weeks after the inoculation of the cells.
For biodistribution experiments, nude mice bearing T47D and MDA-MB-231 tumors (n = 3, per group) were injected with ^18F-TA-Glyco-EE (2–4 MBq) under isoflurane anesthesia. After 30, 60 or 90 min, the mice were sacrificed by cervical dislocation. Blood, as well as organs and tissue from the lung, liver, kidneys, heart, spleen, brain, muscle, femur and tumors, were harvested and measured for radioactivity in the γ-counter (Wallac Wizard, PerkinElmer, Waltham, MA, USA). The samples were weighed, and the radioactivity of each tissue sample was calculated as a percentage of the total injected dose per gram tissue (%ID/g).

MCF-7 cells = assay: Stability in cells (radio-HPLC of cell lysate); assay type: in vitro ADME, human; settings: 90 min incubation, 37 °C, absence of serum
Description: ^18F-TA-Glyco-EE was incubated for 90 min at 37 °C with MCF-7 cells (350,000 cells/well, seeded one day prior to the experiment in 24-well plates) in cell culture medium. After washing twice with ice-cold PBS, the cells were scraped off, and 200 µL PBS was added for resuspension. The cell suspension was transferred to Eppendorf tubes, homogenized using ultrasound (Bandelin sonoplus HD2070 ultrasonic homogenizer, room temperature, BANDELIN electronic GmbH, Berlin, Germany) and then centrifuged. The supernatant was quenched in 10% TFA, and after centrifugation the resulting supernatant was analyzed by radio-HPLC (Chromolith RP-18e, 100 × 4.6 mm, 10–100% acetonitrile (containing 0.1% TFA) in water (containing 0.1% TFA) over 5 min, 4 mL/min).

[4] = system: ER- MDA-MB-231 tumor slices; assay: In vitro autoradiography of MDA-MB-231 tumor slices; assay type: binding, human; settings: 60 min, room temperature, with or without E2 (72 µM)
Description: (§1) MCF-7, MDA-MB231 and T47D tumors grown in nude mice were collected and frozen in a hexane/dry ice bath (−70 °C). Tumor slices (14 µm) were prepared on a cryostat microtome HM 500 O (Microm, Walldorf, Germany), thaw-mounted on HistoBond® adhesive glass slides (Marienfeld, Lauda-Königshofen, Germany) and stored at −80 °C. For in vitro autoradiography studies, the tumor tissue sections were thawed and pre-incubated in incubation buffer (50 mM Tris HCl, 5 mM MgCl2, 0.2% bovine serum albumin (BSA), pH 7.4) at room temperature for 15 min. Then, the sections were transferred to incubation buffer containing ^18F-TA-Glyco-EE (3–5 MBq) in a total volume of 70 mL. For the determination of non-specific binding, separate sections were incubated with ^18F-TA-Glyco-EE in the presence of E2 (72 µM). After an incubation time of 60 min, the sections were washed three times with incubation buffer, followed by a short dip in ice-cold distilled water. The slices were carefully dried in a stream of warm air and finally placed on a phosphor imager screen (Fuji Imaging Plate BAS-IP SR 2025 E) overnight prior to readout (30 µm resolution) using the HD-CR-35 Bio scanner (Elysia-Raytest, Straubenhardt, Germany). […] Regions of interest were analyzed from 3–4 tumor slices from the MCF-7, MDA-MB231 and T47D tumors, and mean values of the intensity per area were calculated.

ER+ T47D tumor slices = assay: In vitro autoradiography of T47D tumor slices; assay type: binding, human; settings: 60 min, room temperature, with or without E2 (72 µM)
Description: as §1

For CC(=O)OC1C(C[18F])OC(n2cc(C3(O)CCC4C5CCc6cc(O)ccc6C5CCC43C)nn2)C(OC(C)=O)C1OC(C)=O (stereo not drawn) [^18F-TA-Glyco-EE], the “Plasma Protein Binding” value [1] was 79 ± 1%, the “Stability in human serum and plasma (in words)” value ([2]; over 120 min, radio-HPLC) was “rapidly deacetylated in serum and plasma” and the “Stability in Human Serum or Plasma” value ([2]; after 30 min, same for serum and plasma, deacetylation observed) was 0% after 30 min ^2,5. For the same compound, the “Uptake in MDA-MB-231 tumors” value ([3]; 30 min p.i.) was 0.9 %ID/g, the “Uptake in T47D tumors” value ([3]; 30 min p.i.) was 1.0 %ID/g and the Uptake in intestine ([3]; 30 min p.i.) was 10 %ID/g. For the same compound, the Uptake in liver ([3]; 30 min p.i.) was 13 %ID/g, the “Tumor uptake ER+ T47D versus ER- MDA-MB-231” value ([3]; 60 min and 90 min p.i., multiple t-test) was “statistically significant differences” and the Uptake in liver ([3]; 90 min p.i.) was 1.2 %ID/g. The “Uptake in blood and all other non-target organs” value ([3]; all time points (30, 60, 90 min p.i.)) was “low”, the “Uptake in T47D or MDA-MB-231 tumors” value ([3]; as summarised in the discussion) was under 1 %ID/g and the “Uptake in liver and intestine” value ([3]; decreasing over 90 min) was “less than 3 %ID/g”. The “Stability in MCF-7 cells (intracellular radioactivity, HPLC)” value (MCF-7 cells) was “without any significant deacetylation”, the “Binding to MDA-MB-231 tumor sections (autoradiography)” value [4] was “negligible binding” and the “Binding to T47D tumor sections (autoradiography)” value (ER+ T47D tumor slices) was “high specific binding”.
